Assay results: US20210161804A1, “FLUTICASONE AND VILANTEROL FORMULATION AND INHALER” (KINDEVA DRUG DELIVERY L.P., priority 2018, published 2021)

Tests used:
[1] = Through life delivered dose (unit spray collection apparatus); type: physicochemical; settings: beginning, middle, end of unit, 3 MDIs, 28.3 L/minute
Procedure: The through life delivered dose was determined using standard unit spray collection apparatus (USCA) fitted with a filter. For each determination, an MDI was attached to the USCA using a coupler. Immediately prior to attachment, the MDI was vigorously shaken. Prior to collection of the test sample, the MDI was primed by actuating four times and before each priming actuation the MDI was vigorously shaken. For each example tested, three MDIs were used. Each MDI was tested with a single actuation into the instrument at the beginning, middle, and end of the unit resulting in 3 actuations per MDI (9 actuations total). The flow rate through the equipment was regulated to 28.3 L/minute+/−0.5 L/minute. The test sample deposited in the USCA was collected by rinsing with a known volume of collection solvent. The recovered samples were then analyzed for sample content using an HPLC assay with reference to a known standard. An HPLC instrument with a UV detector (220 nm at 0 minutes, 240 nm at 5 minutes) and a symmetry shield RP18, 150 mm×4.6 mm (3.5 microns) column (temperature 25° C.) was used. The mobile phase was 10 mM SDS (sodium dodecyl sulphate), 60:40 (v/v) acetetonitrile:50 mM NH4OAc (ammonium acetate), pH 5.50. The injection volume was 50 microliters and the flow rate was 1.0 mL/minute.

[2] = Next Generation Impactor (NGI) aerodynamic particle size distribution; type: physicochemical
Procedure: The aerodynamic particle size distribution emitted from each MDI was evaluated using a Next Generation Impactor Instrument (MSP Corporation, Shoreview, Minn.). For each test, an MDI was attached to the throat component (Emmace anatomical throat, Emmace Consulting, Lund, Sweden) of the NGI instrument and actuated 6 times into the instrument. Prior to each actuation the MDI was vigorously shaken Immediately prior to attachment, the MDI was primed by actuating 4 times. Prior to each priming shot the MDI was vigorously shaken. The flow rate through the instrument during testing was regulated at 30 L/minute. The test sample (fluticasone furoate and vilanterol trifenatate) deposited on the valve stem, actuator, throat assembly (Emmace anatomical throat), individual uncoated collection cups 1-7, micro-orifice collector (MOC), and final filter component was collected by rinsing each individual component with a known volume of collection solvent. The recovered samples were then analyzed for sample content using an HPLC assay with reference to a known standard. An HPLC instrument with a UV detector (220 nm at 0 minutes, 240 nm at 5 minutes) and a symmetry shield RP-18, 4.6-150 mm column (25° C. column temp) was used. The mobile phase was 10 mM SDS, 60:40 (v/v) […]:50 mM NH4OAc, pH 5.5). The injection volume was 50 microliters and the flow rate was 1.0 mL/min.
In Table 1 the fine particle mass (FPM), impactor sized mass (ISM), mass median aerodynamic diameter (MMAD), and throat hold up data for fluticasone furoate (FF) and vilanterol trifenatate (VT) is presented. At each time point 3 individual MDIs were tested and the result is presented as the mean value.
Total Ex-valve content was determined as the sum of the sample content from all twelve analyzed components (valve stem through filter) (reported as micrograms/actuation).
Throat hold up was determined as the ratio of the sample content from the throat assembly divided by the total ex-valve content.
Aerodynamic particle size from a Relvar® Ellipta® 92/22 (fluticasone furoate/vilanterol trifenatate) dry powder inhaler was evaluated as described above for NGI studies with the following changes. The Relvar device was not primed prior to analysis, nor was it shaken prior to actuation. For each test the Relvar was actuated once. An adaptor was prepared and used to obtain a good fit between device mouthpiece and the Emmace throat. A flow rate of approximately 80 L/min was used to achieve a 4 kPa pressure drop in the NGI. A pre-separator was used between the throat assembly and cup 1. Cups 1 to 7 were pre-coated with 50:50 (v/v) glycerol:methanol.
In tables 1-8 above, FPM and ISM are reported as micrograms (mcg) per actuation and MMAD is reported in microns (um). FPM (Fine Particle Mass) was determined as the sum of the sample content determined for cups 3-7, the MOC, and the filter. ISM (Impactor Sized Mass) was determined as the sum of the sample content determined for cups 2-7, the MOC, and the filter. In the examples, the concentrations of fluticasone furoate, vilanterol trifenatate, ethanol, and HFA-227 in the suspension formulations are reported as weight percent (wt. %).

[3] = MDIs of Example 8 (58 microliter primeless valve, no ethanol, HFA-227)
[4] = MDIs of Example 9 (58 microliter primeless valve, 0.05% ethanol, HFA-227)
[5] = MDIs of Example 10 (58 microliter primeless valve, 0.5% ethanol, HFA-227)
[6] = Comparative Example 1: Relvar Ellipta 92/22 dry powder inhaler, actuated once, approximately 80 L/min (4 kPa), pre-separator
[7] = Comparative Example 1: Relvar Ellipta 92/22 dry powder inhaler, approximately 80 L/min (4 kPa), pre-separator
[8] = MDI of Example 1: FF MMD about 3.7 microns, VT MMD about 1.4 microns, HFA-227, 30 L/minute
[9] = MDI of Example 1: FF MMD about 3.7 microns, VT MMD about 1.4 microns, HFA-227, 30 L/minute, Emmace anatomical throat
[10] = MDI of Example 1: FF MMD about 3.7 microns, VT MMD about 1.4 microns, HFA-227, per actuation, 30 L/minute
[11] = MDI of Example 1: FF MMD about 3.7 microns, VT MMD about 1.4 microns, HFA-227, per actuation, 30 L/minute, mean of 3 MDIs
[12] = MDI of Example 2: FF MMD about 2.9 microns, VT MMD about 1.4 microns, HFA-227, 30 L/minute
[13] = MDI of Example 2: FF MMD about 2.9 microns, VT MMD about 1.4 microns, HFA-227, per actuation, 30 L/minute
[14] = MDI of Example 3: FF MMD about 3.7 microns, VT MMD about 4.2 microns, HFA-227, 30 L/minute
[15] = MDI of Example 3: FF MMD about 3.7 microns, VT MMD about 4.2 microns, HFA-227, per actuation, 30 L/minute
[16] = MDI of Example 4: FF MMD about 2.9 microns, VT MMD about 3.4 microns, HFA-227, 30 L/minute
[17] = MDI of Example 4: FF MMD about 2.9 microns, VT MMD about 3.4 microns, HFA-227, per actuation, 30 L/minute
[18] = MDI of Example 5: FF micronized MMD about 2.0 microns, VT high pressure homogenized MMD about 1.4 microns, HFA-227, 30 L/minute
[19] = MDI of Example 5: FF micronized MMD about 2.0 microns, VT high pressure homogenized MMD about 1.4 microns, HFA-227, per actuation, 30 L/minute
[20] = MDI of Example 6: FF MMD about 2.9 microns, VT MMD about 1.4 microns, 0.05% ethanol, HFA-227, 30 L/minute
[21] = MDI of Example 6: FF MMD about 2.9 microns, VT MMD about 1.4 microns, 0.05% ethanol, HFA-227, per actuation, 30 L/minute
[22] = MDI of Example 7: FF MMD about 2.9 microns, VT MMD about 1.4 microns, 0.5% ethanol, HFA-227, 30 L/minute
[23] = MDI of Example 7: FF MMD about 2.9 microns, VT MMD about 1.4 microns, 0.5% ethanol, HFA-227, per actuation, 30 L/minute

OCc1cc([C@@H](O)CNCCCCCCOCCOCc2c(Cl)cccc2Cl)ccc1O [VT, vilanterol trifenatate]
mean through life delivered dose [1, 3]: 13.8 micrograms/actuation
mean through life delivered dose [1, 4]: 13.3 micrograms/actuation
mean through life delivered dose [1, 5]: 14.4 micrograms/actuation
FPM (fine particle mass) [2, 6]: 11.6 µg
ISM (impactor sized mass) [2, 6]: 12.3 µg
MMAD (mass median aerodynamic diameter) [2, 7]: 1.8 um
Throat hold up [2, 7]: 16.1%
MMAD (mass median aerodynamic diameter) [2, 8]: 1.9 um
Throat hold up [2, 9]: 34.0%
ISM (impactor sized mass) [2, 10]: 10.8 µg
FPM (fine particle mass) [2, 11]: 10.0 µg
MMAD (mass median aerodynamic diameter) [2, 12]: 2.0 um
Throat hold up [2, 12]: 28.5%
FPM (fine particle mass) [2, 13]: 9.9 µg
ISM (impactor sized mass) [2, 13]: 10.8 µg
MMAD (mass median aerodynamic diameter) [2, 14]: 3.7 um
Throat hold up [2, 14]: 43.4%
FPM (fine particle mass) [2, 15]: 6.5 µg
ISM (impactor sized mass) [2, 15]: 8.9 µg
MMAD (mass median aerodynamic diameter) [2, 16]: 3.1 um
Throat hold up [2, 16]: 41.0%
FPM (fine particle mass) [2, 17]: 7.5 µg
ISM (impactor sized mass) [2, 17]: 9.8 µg
MMAD (mass median aerodynamic diameter) [2, 18]: 2.6 um
Throat hold up [2, 18]: 31.1%
FPM (fine particle mass) [2, 19]: 8.4 µg
ISM (impactor sized mass) [2, 19]: 9.5 µg
MMAD (mass median aerodynamic diameter) [2, 20]: 2.0 um
Throat hold up [2, 20]: 37.8%
FPM (fine particle mass) [2, 21]: 8.9 µg
ISM (impactor sized mass) [2, 21]: 9.9 µg
MMAD (mass median aerodynamic diameter) [2, 22]: 2.0 um
Throat hold up [2, 22]: 36.1%
FPM (fine particle mass) [2, 23]: 10.3 µg
ISM (impactor sized mass) [2, 23]: 11.2 µg

C[C@@H]1C[C@H]2[C@@H]3C[C@H](F)C4=CC(=O)C=C[C@]4(C)[C@@]3(F)[C@@H](O)C[C@]2(C)[C@@]1(OC(=O)c1ccco1)C(=O)SCF [FF, fluticasone furoate]
mean through life delivered dose [1, 3]: 57.1 micrograms/actuation
mean through life delivered dose [1, 4]: 55.5 micrograms/actuation
mean through life delivered dose [1, 5]: 58.0 micrograms/actuation
FPM (fine particle mass) [2, 6]: 26.5 µg
ISM (impactor sized mass) [2, 6]: 31.5 µg
MMAD (mass median aerodynamic diameter) [2, 7]: 3.4 um
Throat hold up [2, 7]: 26.0%
MMAD (mass median aerodynamic diameter) [2, 8]: 3.5 um
Throat hold up [2, 9]: 52.8%
ISM (impactor sized mass) [2, 10]: 27.7 µg
FPM (fine particle mass) [2, 11]: 19.6 µg
MMAD (mass median aerodynamic diameter) [2, 12]: 3.1 um
Throat hold up [2, 12]: 38.8%
FPM (fine particle mass) [2, 13]: 27.0 µg
ISM (impactor sized mass) [2, 13]: 35.9 µg
MMAD (mass median aerodynamic diameter) [2, 14]: 4.0 um
Throat hold up [2, 14]: 47.0%
FPM (fine particle mass) [2, 15]: 25.0 µg
ISM (impactor sized mass) [2, 15]: 37.5 µg
MMAD (mass median aerodynamic diameter) [2, 16]: 3.2 um
Throat hold up [2, 16]: 43.0%
FPM (fine particle mass) [2, 17]: 28.5 µg
ISM (impactor sized mass) [2, 17]: 38.4 µg
MMAD (mass median aerodynamic diameter) [2, 18]: 2.9 um
Throat hold up [2, 18]: 31.5%
FPM (fine particle mass) [2, 19]: 30.2 µg
ISM (impactor sized mass) [2, 19]: 35.7 µg
MMAD (mass median aerodynamic diameter) [2, 20]: 3.2 um
Throat hold up [2, 20]: 48.6%
FPM (fine particle mass) [2, 21]: 23.1 µg
ISM (impactor sized mass) [2, 21]: 31.5 µg
MMAD (mass median aerodynamic diameter) [2, 22]: 3.0 um
Throat hold up [2, 22]: 46.0%
FPM (fine particle mass) [2, 23]: 26.3 µg
ISM (impactor sized mass) [2, 23]: 34.9 µg
